Assay results as given in patent US20240360145A1, “PYRIMIDINE-2,4-DIAMINE DERIVATIVES AS WELL AS PREPARATION METHOD THEREFOR AND USE THEREOF” (LISEN THERAPEUTICS, INC., priority 2022, published 2024).

What was measured:
Format in all cases: cell-based
DMS114 cells = test: Cell viability IC50 (CCK-8), small cell lung cancer cell line DMS114; conditions: Homo sapiens, DMS-114; DMS114, CCK-8
Procedure: (§1) Small cell lung cancer cell lines DMS114, NCI-H1688, NCI-H82, NCI-H146, and NCI-H446 cells were cultured in RPMI-1640 medium containing 10% fetal bovine serum and 1% penicillin-streptomycin. All the cells were cultured in a constant temperature incubator containing 5% CO2 at 37° C.
(§2) Small cell lung cancer is a highly heterogeneous malignant tumor, and its clinical treatment is mainly based on traditional chemotherapy (mainly platinum medicaments and etoposide). In order to study the anti-tumor activity of the compounds of the present disclosure in small cell lung cancer, the CCK-8 method was used to investigate the cell viability IC50 of compound 8 for five small cell lung cancer cell lines.

NCI-H146 cells = test: Cell viability IC50 (CCK-8), small cell lung cancer cell line H146; conditions: Homo sapiens, NCI-H146; H146, CCK-8
Procedure: as §1, §2

NCI-H82 cells = test: Cell viability IC50 (CCK-8), small cell lung cancer cell line H82; conditions: Homo sapiens, NCI-H82; H82, CCK-8
Procedure: as §1, §2

NCI-H446 cells = test: Cell viability IC50 (CCK-8), small cell lung cancer cell line H446; conditions: Homo sapiens, NCI-H446; H446, CCK-8
Procedure: as §1, §2

PE039 primary cells = test: Cell viability IC50 (CCK-8), primary cells PE039 from small cell lung cancer pleural effusion; conditions: PE039, CCK-8
Procedure: (§3) (1) The pleural effusion was poured into a 15 mL or 50 mL of sterilized centrifuge tube for centrifugation. Centrifugation conditions: 800 to 1000 rpm, 5 min.
(§4) (2) The precipitate was resuspended and washed for 2 to 3 times with PBS.
(§5) (3) The cell precipitate was resuspended with complete culture medium (α-MEM medium containing 10% fetal bovine serum and 2% penicillin-streptomycin), and the flocculent matter in the pleural effusion was removed using a sterilized cell sieve.
(§6) (4) The red blood cells in the pleural effusion were removed with lymphocyte separation fluid, and the tumor cells and lymphocyte components were collected. The number of tumor cells was observed under a microscope, and the cells were inoculated.
(§7) (5) After 24 hours, the supernatant was discarded, and fresh culture medium was added for further culture.
(§8) (6) The cell growth status was observed, and it was determined based on the cell status whether the medium was required to be continuously changed to remove blood cells. When the cells grew to a density of 80% to 90%, the cells were preserved.
(§9) (1) Primary cells from lung cancer pleural effusion within 5 generations were cultured to the logarithmic growth phase. […] After centrifugation at room temperature, the supernatant was discarded, and the cell precipitate was resuspended with fresh complete culture medium. After counting, the cells were placed at room temperature for later use. The cells were inoculated into a 384-well plate at a density of 2000 cells/well with a volume of 40 μl/well. The wells at the outermost circle of the plate were not inoculated with cells, and instead, added with sterile water to reduce evaporation of the culture medium.
(§10) (2) After overnight culture of the cells, the medium was discarded, and a fresh medium containing different concentrations of compounds was added at 200 μl/well. The dilution method of the compound was as follows: first the compound with the highest concentration of 10 μM was prepared, and then the compound was diluted for 3 times in sequence. […] At the same time, a blank control group was set up, in which only an equal volume of culture medium was added without adding cells. Five replicate wells were set up for each group. The cells were placed in the incubator for further culture.
(§11) (3) After 72 hours, 8 μl of CCK-8 solution, which was double-diluted with 10 mM PBS, was added to each well, and the cells were shaken and placed in an incubator at 37° C. for further culture for 2 hours.
(4) The light absorbance value at 450 nm was read using a microplate reader, and the IC50 was calculated according to the absorbance value. The calculation method was the same as above. […]

PE052 primary cells = test: Cell viability IC50 (CCK-8), primary cells PE052 from small cell lung cancer pleural effusion; conditions: PE052, CCK-8
Procedure: as §3, §4, §5, §6, §7, §8, §9, §10, §11
(§12) (4) The light absorbance value at 450 nm was read using a microplate reader, and the IC50 was calculated according to the absorbance value. The calculation method was the same as above.
(§13) (1) Sample information: PE039, PE052, and PE062 were all primary cell samples from pleural effusion of patients with small cell lung cancer, and LT015 was a primary cell sample from bronchoscopic biopsy of a patient with small cell lung cancer.
(§14) (2) CCK-8 detection was used to detect the IC50 values of different medicaments (compounds).

PE062 primary cells = test: Cell viability IC50 (CCK-8), primary cells PE062 from small cell lung cancer pleural effusion; conditions: PE062, CCK-8
Procedure: as §3, §4, §5, §6, §7, §8, §9, §10, §11, §12, §13, §14

HT29 (colon cancer) = test: Cell viability IC50 (CellTiter-Glo), HT29; conditions: Homo sapiens, HT-29, HT29, 72 hours
Procedure: (§15) The cancer cell lines were cultured to the logarithmic growth phase according to conventional culture methods, and the cells were inoculated into a 384-well plate at a density of 2,000 cells/well in a volume of 40 μl/well. The concentrations of added compounds were: […], 1.67 μM, 0.56 μM, 0.19 μM, 0.062 μM, 0.021 μM, 0.0069 μM, 0.0023 μM, 0.00076 μM, and 0 μM. After 72 hours, cell viability was detected using the CellTiter-Glo™ Detection Kit.

ASH-3 (thyroid cancer) = test: Cell viability IC50 (CellTiter-Glo), ASH-3; conditions: ASH-3, 72 hours
Procedure: as §15

OV-90 (ovarian cancer) = test: Cell viability IC50 (CellTiter-Glo), OV-90; conditions: Homo sapiens, OV-90, 72 hours
Procedure: as §15

PC-3 (prostate cancer) = test: Cell viability IC50 (CellTiter-Glo), PC-3; conditions: PC-3, 72 hours
Procedure: as §15

AGS (gastric cancer) = test: Cell viability IC50 (CellTiter-Glo), AGS; conditions: 72 hours
Procedure: as §15

CN1CC2CCC(C1)N2Cc1ccc(Nc2ncc(Cl)c(Nc3ccccc3S(=O)(=O)N(C)C)n2)cc1 [Compound 8, 2-((5-chloro-2-((4-((3-methyl-3,8-diazabicyclo[3.2.1]octan-8-yl)methyl)phenyl)amino)pyrimidin-4-yl)amino)-N,N-dimethylbenzenesulfonamide]
IC50 (DMS114 cells): 6.03 nM | IC50 (NCI-H146 cells): 9.92 nM | IC50 (NCI-H82 cells): 5.15 nM | IC50 (NCI-H446 cells): 7.58 nM | IC50 (PE039 primary cells): 51.5 nM | IC50 (PE052 primary cells): 59.9 nM | IC50 (PE062 primary cells): 2.7 nM | IC50 (HT29 (colon cancer)): 190 nM | IC50 (ASH-3 (thyroid cancer)): 44 nM | IC50 (OV-90 (ovarian cancer)): 103 nM | IC50 (PC-3 (prostate cancer)): > 3000 nM | IC50 (AGS (gastric cancer)): 36.2 nM
